Measurements reported in PMC7796304, “Nephrotoxic Potential of Putative 3,5-Dichloroaniline (3,5-DCA) Metabolites and Biotransformation of 3,5-DCA in Isolated Kidney Cells from Fischer 344 Rats” (International Journal of Molecular Sciences, 2020).

Assays:
[1] = test system: isolated kidney cells (IKC); assay: Pretreatment with antioxidants or enzyme inhibitors before 3,5-DCNB, LDH release in IKC; conditions: 1.0 mM 3,5-DCNB, 60 min, pretreatment concentrations per Table 4
[2] = test system: isolated kidney cells (IKC); assay: Effect of DEDTCA pretreatment on 3,5-DCA metabolism in IKC; conditions: 90 min; for Percent of Dose, Media / Percent of Dose, Cells / detection as 3,5-DCA metabolite in media and cells: 3,5-DCA 1.0 mM; for Percent of Dose, Media / Percent of Dose, Cells: N = 4, mean ± SE; for detection as 3,5-DCA metabolite in media and cells: DEDTCA experiment
Description: In a separate experiment, cells were pretreated with diethyldithiocarbamic acid (DEDTCA, 0.1 mM, 30 min pretreatment), a CYP2C inhibitor, before 3,5-DCA addition to determine which metabolites were decreased with DEDTCA pretreatment. Following the 90 min incubation period, cells and media were treated and stored as described above for the determination of 3,5-DCA concentrations and the concentrations of 3,5-DCA metabolites formed.
Samples (75 µL) of media and lysed IKC were analyzed on a Waters Alliance e2695 HPLC system (Waters Co., Milford, MA, USA), utilizing a Waters 2489 variable UV/Vis detector at 254 nM. Chromatograms were collected and integrated using Empower 3 software (Waters Co., Milford, MA, USA). A Waters X Select HSS T3 C18 column (3.5 µm; 4.6 × 150 mm^2) fitted with a Waters XSelect HSS T3 VanGuard Cartridge (3.5 µm; 3.9 × 5 mm^2) was used for separation of compounds. The mobile phase consisted of 50:50 methanol:water with a flow rate of 0.75 mL/min. Standard curves, limits of detection, and extraction coefficients were determined for 3,5-DCA and putative metabolites. Extraction coefficients were determined by comparing the integration of a 1.0 mM 3,5-DCA or a metabolite sample that had undergone sample processing (i.e., the addition of methanol and centrifugation) to that of a unprocessed 1.0 mM 3,5-DCA or metabolite sample.

[3] = test system: isolated kidney cells (IKC); assay: 3,5-DCA metabolism by IKC, HPLC of media and cells; conditions: for free aminochlorophenol after arylsulfatase or β-glucuronidase treatment of media or cell lysates: 45 or 90 min
Description: At the end of the incubation period, 1.0 mL samples were collected, and media and cells separated by centrifugation. The pelleted cells were washed with KH buffer (no bovine serum albumin), and the rinse was added to the media. Cells were lysed via sonication and protein was precipitated by methanol (1.0 mL) addition to all samples. Samples were centrifuged (3000 g; 10 min, 4 °C) and the supernatant filtered through a 0.45 µ syringe filter and stored at −20 °C until analyzed by HPLC as described below.
To determine if sulfate or glucuronide conjugates were formed, in some experiments, media and cell supernatant fractions obtained as described above were treated with β-glucuronidase (6500 units/mL, final concentration) or arylsulfatase (200 units/mL, final concentration) + saccaharolactone (20 mM, final concentration) for 18 h (37 °C) in 0.1 M acetate buffer (pH 5.0) to hydrolyze any glucuronide or sulfate conjugates, respectively, that were formed [26]. Hydrolysis was stopped by the addition of cold methanol (2.4 mL). The fractions were then filtered and stored until analyzed as described above.
Chromatograms were collected and integrated using Empower 3 software (Waters Co., Milford, MA, USA). A Waters X Select HSS T3 C18 column (3.5 µm; 4.6 × 150 mm^2) fitted with a Waters XSelect HSS T3 VanGuard Cartridge (3.5 µm; 3.9 × 5 mm^2) was used for separation of compounds. The mobile phase consisted of 50:50 methanol:water with a flow rate of 0.75 mL/min. Standard curves, limits of detection, and extraction coefficients were determined for 3,5-DCA and putative metabolites. Extraction coefficients were determined by comparing the integration of a 1.0 mM 3,5-DCA or a metabolite sample that had undergone sample processing (i.e., the addition of methanol and centrifugation) to that of a unprocessed 1.0 mM 3,5-DCA or metabolite sample.

[4] = test system: isolated kidney cells (IKC); assay: LDH release cytotoxicity, time and concentration course, in isolated kidney cells; conditions: for LDH release (marker of cytotoxicity) / nephrotoxic potential among the metabolites tested: 0-1.5 mM; for LDH release (marker of cytotoxicity): 60 or 90 min; for nephrotoxic potential among the metabolites tested: up to 90 min
[5] = test system: rat renal cortical slices; parameters: method as in PMID 8023337; conditions: cited from earlier work
[6] = test system: rat renal cortical slices; parameters: method as in PMID 18243470; conditions: 2 h exposure; cited from earlier work
kidney = conditions: cited from earlier work
[7] = test system: isolated kidney cells (IKC); conditions: 0.5 mM 3,5-DCPHA, 60 min, pretreatment concentrations per Table 4
[8] = test system: isolated kidney cells (IKC); parameters: method as in PMID 26808022; conditions: cited from earlier work
renal cortical slices = conditions: cited from earlier work
[9] = test system: isolated kidney cells (IKC); parameters: method as in PMID 26808022; conditions: 90 min exposure; cited from earlier work
[10] = test system: isolated kidney cells (IKC); parameters: method as in PMID 26808022; conditions: cited from earlier work; remark: listed apart in the source
[11] = parameters: method as in PMID 26808022; conditions: calculated, Fischer 344 rat; cited from earlier work
[12] = +DEDTCA (0.1 mM, 30 min pretreatment)
[13] = IKC incubated with 0.5 mM 3,5-DCA, 90 min, N = 3, mean ± SE
[14] = IKC incubated with 1.0 mM 3,5-DCA, 90 min, N = 4, mean ± SE
[15] = IKC incubated with 1.0 mM 3,5-DCA

CCCCOCCOCCOCc1cc2c(cc1CCC)OCO2 [piperonyl butoxide]
effect of pretreatment on 3,5-DCNB-induced cytotoxicity (LDH release) [1]: significantly attenuated

Cc1c(C)c2c(c(C)c1O)CC[C@@](C)(CCC[C@H](C)CCC[C@H](C)CCCC(C)C)O2 [α-tocopherol]
effect of pretreatment on 3,5-DCNB-induced cytotoxicity (LDH release) [1]: significantly attenuated

CC(=O)Nc1cc(Cl)cc(Cl)c1 [3,5-DCAA, 3,5-dichloroacetanilide]
Percent of Dose, Media [2, 12]: 0.30 ± 0.05%
Percent of Dose, Cells ([2]; −DEDTCA): 0.02 ^ %
Percent of Dose, Media ([2]; −DEDTCA): 0.50 ± 0.03%
Percentage of Dose, Cells [3, 13]: 0.07 ^ %
Percentage of Dose, Media [3, 13]: 1.86 ± 0.42%
Percentage of Dose, Media [3, 14]: 0.56 ± 0.07%
LDH release (marker of cytotoxicity) [4]: did not significantly increase LDH release
nephrotoxic potential among the metabolites tested [4]: not cytotoxic

O=C(O)CC(S)C(=O)O (stereo not shown) [mercaptosuccinate]
effect of pretreatment on 3,5-DCNB-induced cytotoxicity (LDH release) [1]: significantly attenuated

Nc1cc(Cl)c(O)c(Cl)c1 [4-A-2,6-DCP, 4-amino-2,6-dichlorophenol]
concentration reducing uptake of p-aminohippurate (PAH) [5]: 5 µM
concentration reducing uptake of tetraethylammonium (TEA) [5]: 50 µM
detection as 3,5-DCA metabolite in media and cells [2]: no 2-A-4,6-DCP, 4-A-2,6-DCP or 3,5-DCPHA detected
free aminochlorophenol after arylsulfatase or β-glucuronidase treatment of media or cell lysates [3, 15]: did not reveal any free 2-A-4,6-DCP or 4-A-2,6-DCP
concentration increasing LDH release [6]: ≥ 50 µM
nephrotoxicity in vivo (kidney; male Fischer 344 rats, 0.38 mmol/kg, i.p.): marked nephrotoxicity
concentration required to increase LDH release ([4]; 90 min exposure, albumin in medium, no reference given): ≥ 250 µM

CC(C)(C(=O)c1cccnc1)c1cccnc1 [metyrapone]
effect of pretreatment on 3,5-DCNB-induced cytotoxicity (LDH release) [1]: significantly attenuated

Nc1cc(Cl)cc(Cl)c1O [2-A-4,6-DCP, 2-amino-4,6-dichlorophenol]
detection as 3,5-DCA metabolite in media and cells [2]: no 2-A-4,6-DCP, 4-A-2,6-DCP or 3,5-DCPHA detected
free aminochlorophenol after arylsulfatase or β-glucuronidase treatment of media or cell lysates [3, 15]: did not reveal any free 2-A-4,6-DCP or 4-A-2,6-DCP
LDH release (marker of cytotoxicity) [4]: did not result in significant increases in LDH release
nephrotoxic potential among the metabolites tested [4]: not cytotoxic

O=C1O[C@H]([C@@H](O)CO)C(O)=C1O [ascorbate]
effect of pretreatment on 3,5-DCPHA-induced cytotoxicity (LDH release) [7]: not effective at reducing 3,5-DCPHA cytotoxicity
effect of pretreatment on 3,5-DCNB-induced cytotoxicity (LDH release) [1]: significantly attenuated

ONc1cc(Cl)cc(Cl)c1 [3,5-DCPHA]
detection as 3,5-DCA metabolite in media and cells [2]: no 2-A-4,6-DCP, 4-A-2,6-DCP or 3,5-DCPHA detected
nephrotoxic potential among the metabolites tested [4]: most potent nephrotoxicant
concentration giving significant increase in LDH release ([4]; 60 min exposure): ≥ 250 µM
concentration giving significant increase in LDH release ([4]; 90 min exposure): ≥ 250 µM

NNC(=O)c1ccncc1 [isoniazid]
effect of inhibitor pretreatment on 3,5-DCA cytotoxicity [8]: had no effect on 3,5-DCA cytotoxicity

O=[N+]([O-])c1cc(Cl)cc(Cl)c1 [3,5-DCNB, 3,5-dichloronitrobenzene]
Percent of Dose, Cells [2, 12]: 0.06 ^ %
Percent of Dose, Media [2, 12]: 0.09 ^ %
Percent of Dose, Cells ([2]; −DEDTCA): 0.13 ^ %
Percent of Dose, Media ([2]; −DEDTCA): 0.31 ± 0.19 %
nephrotoxic potential among dichloronitrobenzenes (renal cortical slices): least potent nephrotoxicant among the dichloronitrobenzenes
Percentage of Dose, Cells [3, 13]: 0.41 ^ %
Percentage of Dose, Media [3, 13]: 2.80 ^ %
Percentage of Dose, Cells [3, 14]: 0.34 ± 0.19 %
Percentage of Dose, Media [3, 14]: 1.18 ± 0.57 %
nephrotoxic potential among the metabolites tested [4]: intermediate in nephrotoxic potential
concentration giving significant increase in LDH release ([4]; 90 min exposure): ≥ 1000 µM

Nc1cc(Cl)cc(Cl)c1 [3,5-DCA, 3,5-dichloroaniline]
concentration leading to increased LDH release [9]: ≥ 1000 µM
reduced and total glutathione levels [10]: both reduced
Percent of Dose, Cells [2, 12]: 14.67 ± 1.78%
Percent of Dose, Media [2, 12]: 91.14 ± 3.04%
Percent of Dose, Cells ([2]; −DEDTCA): 16.01 ± 2.02%
Percent of Dose, Media ([2]; −DEDTCA): 89.43 ± 5.66%
maximum blood level from a nephrotoxic dose [11]: ~ 1.25 mM
Percentage of Dose, Cells [3, 13]: 6.82 ± 3.33%
Percentage of Dose, Media [3, 13]: 89.31 ± 6.32%
Percentage of Dose, Cells [3, 14]: 13.19 ± 2.12%
Percentage of Dose, Media [3, 14]: 87.13 ± 4.56%
fraction of 3,5-DCA metabolized to 3,5-DCAA and 3,5-DCNB ([3]; IKC, 0.5 or 1.0 mM, 90 min): Less than 5%
renal effects of in vivo exposure (kidney; Sprague–Dawley or Fischer 344 rats): elevated blood urea nitrogen (BUN) concentration, decreased organic ion transport in proximal tubular cells, decreased kidney weight, proteinuria, and hematuria
concentration that induces cytotoxicity (increased LDH release) ([4]; 90 min): 1000 µM
non-cytotoxic concentration ([4]; 90 min): 0.5 mM

COc1ccc2c(c1)c(CC(=O)O)c(C)n2C(=O)c1ccc(Cl)cc1 [Indomethacin]
effect of pretreatment on 3,5-DCNB-induced cytotoxicity (LDH release) [1]: tended to reduce 3,5-DCNB-induced LDH release but did not reach a significant difference

CCN(CC)C(=S)S [DEDTCA, diethyldithiocarbamic acid, reference compound]
effect of pretreatment on 3,5-DCA metabolite formation ([2]; DEDTCA 0.1 mM, then 3,5-DCA 1.0 mM): formation of 3,5-DCAA and 3,5-DCNB were reduced
effect of inhibitor pretreatment on 3,5-DCA cytotoxicity [8]: markedly reduced 3,5-DCA cytotoxicity

N[C@@H](CCC(=O)N[C@@H](CS)C(=O)NCC(=O)O)C(=O)O [glutathione]
effect of pretreatment on 3,5-DCPHA-induced cytotoxicity (LDH release) [7]: fully protected
effect of pretreatment on 3,5-DCNB-induced cytotoxicity (LDH release) [1]: significantly attenuated

CCCCCCCCN [n-octylamine]
effect of pretreatment on 3,5-DCNB-induced cytotoxicity (LDH release) [1]: significantly attenuated

CC(=O)N[C@@H](CS)C(=O)O [N-acetyl-L-cysteine]
effect of pretreatment on 3,5-DCPHA-induced cytotoxicity (LDH release) [7]: partially attenuated
effect of pretreatment on 3,5-DCNB-induced cytotoxicity (LDH release) [1]: significantly attenuated
